Compound in one assay: Nc1ncnc2c1ncn2[C@@H]1O[C@H](COP(=O)(O)OP(=O)(O)OP(=O)(O)O)[C@@H](O)[C@H]1O [adenosine triphosphate]
As to the kind of experiment: pEC50 of ATP-induced change in protein thermal stability (2D-TPP). The gist of the method: (§1)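 pEC50 was obtained by fitting dose-response curves for each replicate over pairs of adjacent temperatures, and hits were assigned using permutation-based false discovery rate control. The input came from Jurkat crude lysate treated with five concentrations including vehicle (10 min, room temperature), heated at 12 temperatures from 42 to 63.9 °C for 3 min, then given NP40 and benzonase (60 min, 4 °C). After ultracentrifugation, soluble protein was quantified by TMT LC-MS/MS as median-normalised fold changes versus vehicle per temperature, across three independent experiments.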

Compound in a further assay: Nc1nc2c(ncn2[C@@H]2O[C@H](COP(=O)(O)OP(=O)(O)OP(=O)(O)O)[C@@H](O)[C@H]2O)c(=O)[nH]1 [guanosine triphosphate]
The assay can be described thus: pEC50 of GTP-induced change in protein thermal stability (2D-TPP). The gist of the method:
as §1
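Wherever pEC50 of ATP-induced change in protein thermal stability (2D-TPP) is given: lysate dosed with Na-ATP at 0 0.005 0.05 0.5 and 2 mM.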

Chain of UniProt Q01105 (Q01105 whole entry): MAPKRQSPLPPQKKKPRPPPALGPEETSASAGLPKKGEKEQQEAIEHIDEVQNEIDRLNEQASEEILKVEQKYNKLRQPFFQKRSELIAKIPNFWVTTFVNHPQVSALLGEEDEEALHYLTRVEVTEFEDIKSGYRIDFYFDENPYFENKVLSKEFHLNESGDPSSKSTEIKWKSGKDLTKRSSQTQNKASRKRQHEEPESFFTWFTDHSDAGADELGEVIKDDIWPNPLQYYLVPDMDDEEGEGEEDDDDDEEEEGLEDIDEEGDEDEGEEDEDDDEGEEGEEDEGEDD
Chain of UniProt P05771 (P05771 whole entry, looked up): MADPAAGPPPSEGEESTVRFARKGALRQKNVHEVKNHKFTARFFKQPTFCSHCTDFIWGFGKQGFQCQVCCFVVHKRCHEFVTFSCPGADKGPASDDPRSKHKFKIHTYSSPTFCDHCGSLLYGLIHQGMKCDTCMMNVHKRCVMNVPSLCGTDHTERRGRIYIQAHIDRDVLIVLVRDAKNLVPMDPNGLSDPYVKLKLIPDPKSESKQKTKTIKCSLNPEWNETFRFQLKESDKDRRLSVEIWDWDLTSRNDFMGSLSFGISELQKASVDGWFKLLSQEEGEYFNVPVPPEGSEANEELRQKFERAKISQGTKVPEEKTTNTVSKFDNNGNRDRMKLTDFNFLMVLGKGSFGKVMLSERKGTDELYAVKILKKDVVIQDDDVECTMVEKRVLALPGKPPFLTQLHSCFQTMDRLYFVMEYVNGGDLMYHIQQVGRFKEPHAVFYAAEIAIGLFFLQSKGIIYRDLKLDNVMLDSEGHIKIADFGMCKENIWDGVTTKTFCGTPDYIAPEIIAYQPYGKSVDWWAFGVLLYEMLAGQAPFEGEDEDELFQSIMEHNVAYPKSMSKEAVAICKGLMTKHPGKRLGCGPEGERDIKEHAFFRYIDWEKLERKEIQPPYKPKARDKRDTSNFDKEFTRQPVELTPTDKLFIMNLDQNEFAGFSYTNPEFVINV
Chain of UniProt P36542 (P36542 whole entry): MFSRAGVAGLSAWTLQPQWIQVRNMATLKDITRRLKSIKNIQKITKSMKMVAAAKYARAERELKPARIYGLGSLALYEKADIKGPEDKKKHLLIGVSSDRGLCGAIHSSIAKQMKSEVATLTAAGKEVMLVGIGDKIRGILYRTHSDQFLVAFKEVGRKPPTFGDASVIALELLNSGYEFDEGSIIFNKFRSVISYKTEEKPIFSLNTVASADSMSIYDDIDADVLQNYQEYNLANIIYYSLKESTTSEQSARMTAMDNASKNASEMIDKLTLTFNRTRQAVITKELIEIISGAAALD
Chain of UniProt P20338 (P20338 whole entry): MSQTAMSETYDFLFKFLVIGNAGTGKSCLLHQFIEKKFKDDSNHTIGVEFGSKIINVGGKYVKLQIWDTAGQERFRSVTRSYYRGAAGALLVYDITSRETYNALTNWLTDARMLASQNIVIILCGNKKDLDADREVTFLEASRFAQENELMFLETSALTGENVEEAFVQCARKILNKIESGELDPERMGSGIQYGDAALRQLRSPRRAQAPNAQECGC
Chain of UniProt Q9Y5L0 (Q9Y5L0 whole entry): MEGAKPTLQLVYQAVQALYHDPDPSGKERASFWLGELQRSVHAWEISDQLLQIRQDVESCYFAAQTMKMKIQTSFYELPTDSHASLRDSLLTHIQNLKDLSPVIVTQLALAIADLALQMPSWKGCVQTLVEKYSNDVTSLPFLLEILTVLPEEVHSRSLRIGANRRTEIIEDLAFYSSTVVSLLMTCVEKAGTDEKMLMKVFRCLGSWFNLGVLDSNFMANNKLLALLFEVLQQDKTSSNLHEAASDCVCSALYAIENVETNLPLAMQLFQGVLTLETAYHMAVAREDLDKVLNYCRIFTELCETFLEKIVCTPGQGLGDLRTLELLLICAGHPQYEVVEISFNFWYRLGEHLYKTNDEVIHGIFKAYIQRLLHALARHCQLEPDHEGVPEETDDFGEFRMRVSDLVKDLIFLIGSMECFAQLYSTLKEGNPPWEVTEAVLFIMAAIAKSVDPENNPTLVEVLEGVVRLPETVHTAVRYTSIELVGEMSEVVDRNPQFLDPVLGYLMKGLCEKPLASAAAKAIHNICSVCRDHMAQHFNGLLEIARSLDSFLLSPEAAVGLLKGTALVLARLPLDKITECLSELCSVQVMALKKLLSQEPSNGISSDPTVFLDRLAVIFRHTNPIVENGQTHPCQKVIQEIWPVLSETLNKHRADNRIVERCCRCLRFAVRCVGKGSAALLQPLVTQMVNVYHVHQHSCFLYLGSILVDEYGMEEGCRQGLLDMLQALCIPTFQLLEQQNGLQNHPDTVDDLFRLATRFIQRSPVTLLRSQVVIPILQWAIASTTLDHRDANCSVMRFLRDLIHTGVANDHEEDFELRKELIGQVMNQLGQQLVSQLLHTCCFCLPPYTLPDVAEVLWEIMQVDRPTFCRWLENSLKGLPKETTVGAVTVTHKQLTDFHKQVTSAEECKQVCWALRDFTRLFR
Chain of UniProt P08240 (P08240 whole entry): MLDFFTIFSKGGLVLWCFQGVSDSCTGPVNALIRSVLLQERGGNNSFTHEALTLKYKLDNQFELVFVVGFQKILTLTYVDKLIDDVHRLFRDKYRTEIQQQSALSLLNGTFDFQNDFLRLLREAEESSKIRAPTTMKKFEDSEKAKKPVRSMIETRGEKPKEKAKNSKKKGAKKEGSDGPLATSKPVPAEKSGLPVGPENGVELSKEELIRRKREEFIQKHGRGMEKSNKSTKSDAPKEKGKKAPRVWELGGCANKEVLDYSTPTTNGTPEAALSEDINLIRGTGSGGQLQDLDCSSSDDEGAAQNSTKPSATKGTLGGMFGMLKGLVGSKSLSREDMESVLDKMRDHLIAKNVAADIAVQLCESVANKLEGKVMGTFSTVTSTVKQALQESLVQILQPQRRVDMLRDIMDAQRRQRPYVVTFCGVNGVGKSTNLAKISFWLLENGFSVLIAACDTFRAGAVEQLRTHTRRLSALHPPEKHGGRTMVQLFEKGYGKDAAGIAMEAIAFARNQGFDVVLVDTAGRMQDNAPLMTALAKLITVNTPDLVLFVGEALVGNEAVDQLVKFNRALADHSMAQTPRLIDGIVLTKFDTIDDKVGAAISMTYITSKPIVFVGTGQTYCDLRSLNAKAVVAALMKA
Chain of UniProt Q92973 (Q92973 whole entry): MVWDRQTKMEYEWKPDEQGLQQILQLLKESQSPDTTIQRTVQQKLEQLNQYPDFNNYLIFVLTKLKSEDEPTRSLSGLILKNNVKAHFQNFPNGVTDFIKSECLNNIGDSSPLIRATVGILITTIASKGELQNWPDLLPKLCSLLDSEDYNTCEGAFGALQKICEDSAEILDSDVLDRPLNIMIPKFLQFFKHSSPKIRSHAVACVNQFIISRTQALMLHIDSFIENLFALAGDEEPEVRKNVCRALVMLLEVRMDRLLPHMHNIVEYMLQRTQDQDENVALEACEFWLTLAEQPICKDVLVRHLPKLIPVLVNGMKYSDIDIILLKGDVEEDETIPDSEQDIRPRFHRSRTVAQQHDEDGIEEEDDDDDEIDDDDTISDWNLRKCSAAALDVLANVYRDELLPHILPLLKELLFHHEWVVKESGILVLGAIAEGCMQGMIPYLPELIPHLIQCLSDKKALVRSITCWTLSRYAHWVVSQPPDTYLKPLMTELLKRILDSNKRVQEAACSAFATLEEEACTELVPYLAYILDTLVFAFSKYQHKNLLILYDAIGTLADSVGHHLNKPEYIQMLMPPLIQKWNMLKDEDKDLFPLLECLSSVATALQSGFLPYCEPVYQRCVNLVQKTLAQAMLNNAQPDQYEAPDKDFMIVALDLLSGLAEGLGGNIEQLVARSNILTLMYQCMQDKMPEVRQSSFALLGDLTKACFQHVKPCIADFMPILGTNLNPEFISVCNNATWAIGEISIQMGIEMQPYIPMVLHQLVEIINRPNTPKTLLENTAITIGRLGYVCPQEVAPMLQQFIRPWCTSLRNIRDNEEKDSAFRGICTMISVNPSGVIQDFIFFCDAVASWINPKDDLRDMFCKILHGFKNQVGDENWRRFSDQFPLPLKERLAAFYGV
Chain of UniProt O00442 (O00442 whole entry): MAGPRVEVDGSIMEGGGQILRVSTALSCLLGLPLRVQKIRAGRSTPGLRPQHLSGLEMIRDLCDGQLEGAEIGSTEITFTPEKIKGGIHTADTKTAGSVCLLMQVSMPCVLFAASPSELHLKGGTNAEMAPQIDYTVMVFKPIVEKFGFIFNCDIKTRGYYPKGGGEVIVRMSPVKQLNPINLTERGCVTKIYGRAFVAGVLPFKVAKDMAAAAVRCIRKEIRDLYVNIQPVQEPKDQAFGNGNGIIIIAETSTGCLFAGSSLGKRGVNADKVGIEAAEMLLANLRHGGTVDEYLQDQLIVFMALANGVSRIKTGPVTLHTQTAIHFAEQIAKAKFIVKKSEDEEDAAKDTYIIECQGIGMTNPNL

The term pEC50 denotes the EC50 on a negative log10 scale, so that one unit is a factor of ten. As to “NDUFA10 (effect direction: stabilized) (UniProt O95299)”, the negative logarithm of the EC50 (pEC50) with adenosine triphosphate came out at 3.91; with guanosine triphosphate, 3.81.

On to “NEK7 (effect direction: stabilized) (UniProt Q8TDX7)”, for which the figures for the negative-log EC50 (pEC50) with adenosine triphosphate and with guanosine triphosphate were 4.02 and 4.11, respectively.

Take “NME4 (effect direction: stabilized) (UniProt O00746)”: the pEC50 is 4.29 in the assay with adenosine triphosphate and 4.44 with guanosine triphosphate.

Regarding “NSUN2 (effect direction: stabilized) (UniProt Q08J23)”, the negative logarithm of the EC50 (pEC50) with adenosine triphosphate was less than 2.7; in the assay with guanosine triphosphate, 3.87.

Regarding “NUBP2 (effect direction: stabilized) (UniProt Q9Y5Y2)”, the values for the pEC50 with adenosine triphosphate and with guanosine triphosphate were 3.41 and 4.71, respectively.

Turning to “OLA1 (effect direction: stabilized) (UniProt Q9NTK5)”, the pEC50 in the assay with adenosine triphosphate came out at 3.81; with guanosine triphosphate it was 3.87.

Take “OSGEP (effect direction: stabilized) (UniProt Q9NPF4)”: the pEC50 was found to be 3.8 with adenosine triphosphate and 3.88 with guanosine triphosphate.

Take “PAK4 (effect direction: stabilized) (UniProt O96013)”: the negative logarithm of the EC50 (pEC50) with adenosine triphosphate amounted to 4.07; with guanosine triphosphate, 3.44.

On to “PEX1 (effect direction: stabilized) (UniProt O43933)”, for which the values for the pEC50 with adenosine triphosphate and with guanosine triphosphate were 3.98 and 3.72, respectively.

Take “PFKL (effect direction: stabilized) (UniProt P17858)”: the negative-log EC50 (pEC50) in the assay with adenosine triphosphate is 3.4; with guanosine triphosphate, 3.54.

Consider “PRKAR1A (effect direction: stabilized) (UniProt P10644)”, for which the negative logarithm of the EC50 (pEC50) in the assay with adenosine triphosphate is 3.85; in the assay with guanosine triphosphate, 3.72.

Regarding “PRKCB (effect direction: stabilized) (UniProt P05771)”, the results for the pEC50 with adenosine triphosphate and in the assay with guanosine triphosphate were 3.44 and 3.86, respectively.

On to “PRKCQ (effect direction: stabilized) (UniProt Q04759)”, for which the pEC50 came to 4.19 in the assay with adenosine triphosphate and 4.08 in the assay with guanosine triphosphate.

In the case of “RAB2A (effect direction: stabilized) (UniProt P61019)”, the values for the pEC50 with adenosine triphosphate and in the assay with guanosine triphosphate were 3.56 and 4.39, respectively.

“RAB2B (effect direction: stabilized) (UniProt Q8WUD1)”: the negative-log EC50 (pEC50) with adenosine triphosphate was determined as 3.45; with guanosine triphosphate, 4.52.

“RAB4A (effect direction: stabilized) (UniProt P20338)”: the pEC50 with adenosine triphosphate is 3.45; in the assay with guanosine triphosphate, 4.52.

With “RAB4B (effect direction: stabilized) (UniProt P61018)”, the pEC50 with adenosine triphosphate stood at 3.79; with guanosine triphosphate, 5.

On to “RAB5C (effect direction: stabilized) (UniProt P51148)”, for which the pEC50 is 4.22 with adenosine triphosphate and 4.49 in the assay with guanosine triphosphate.

With “RAB8A (effect direction: stabilized) (UniProt P61006)”, the values for the negative-log EC50 (pEC50) with adenosine triphosphate and in the assay with guanosine triphosphate were 4.15 and 4.51, respectively.

Consider “RAB8B (effect direction: stabilized) (UniProt Q92930)”, for which the pEC50 with adenosine triphosphate is 3.93; with guanosine triphosphate it was 4.27.

Consider “RAB21 (effect direction: stabilized) (UniProt Q9UL25)”, for which the pEC50 was 3.75 with adenosine triphosphate and 4.53 in the assay with guanosine triphosphate.

In the case of “RAB33A (effect direction: stabilized) (UniProt Q14088)”, the negative logarithm of the EC50 (pEC50) in the assay with adenosine triphosphate came out at 3.39; with guanosine triphosphate it was 3.89.

“RAB39B (effect direction: stabilized) (UniProt Q96DA2)”: the results for the negative-log EC50 (pEC50) in the assay with adenosine triphosphate and in the assay with guanosine triphosphate were 3.52 and 4.03, respectively.

In the case of “RAB43 (effect direction: stabilized) (UniProt Q86YS6)”, the negative-log EC50 (pEC50) with adenosine triphosphate worked out at 3.55; in the assay with guanosine triphosphate it was 4.47.

With “RABL3 (effect direction: stabilized) (UniProt Q5HYI8)”, the negative logarithm of the EC50 (pEC50) in the assay with adenosine triphosphate was determined as 3.4; in the assay with guanosine triphosphate, 3.95.

As for “RAD50 (effect direction: stabilized) (UniProt Q92878)”, the negative logarithm of the EC50 (pEC50) with adenosine triphosphate was determined as 3.37; with guanosine triphosphate, 3.49.

On to “RHEB (effect direction: stabilized) (UniProt Q15382)”, for which the figures for the pEC50 with adenosine triphosphate and with guanosine triphosphate were 3.28 and 4.45, respectively.

In the case of “RHOA (effect direction: stabilized) (UniProt P61586)”, the pEC50 is 4.15 with adenosine triphosphate and 4.45 with guanosine triphosphate.

With “RUVBL1 (effect direction: stabilized) (UniProt Q9Y265)”, the pEC50 came to 4.34 with adenosine triphosphate and 3.67 with guanosine triphosphate.

As for “RUVBL2 (effect direction: stabilized) (UniProt Q9Y230)”, the values for the negative-log EC50 (pEC50) with adenosine triphosphate and with guanosine triphosphate were 4.33 and 3.77, respectively.

With “SET (effect direction: stabilized) (UniProt Q01105)”, the negative logarithm of the EC50 (pEC50) with adenosine triphosphate was 3.06; with guanosine triphosphate, 3.71.

On to “SUCLA2 (effect direction: stabilized) (UniProt Q9P2R7)”, for which the pEC50 is 3.2 with adenosine triphosphate and 3.78 with guanosine triphosphate.

For the target “SUCLG1 (effect direction: stabilized) (UniProt P53597)”, the pEC50 with adenosine triphosphate was found to be 3.48; in the assay with guanosine triphosphate it was 3.83.

As for “SUCLG2 (effect direction: stabilized) (UniProt Q96I99)”, the pEC50 with adenosine triphosphate was 3.43; with guanosine triphosphate it was 3.5.

In the case of “TBCD (effect direction: stabilized) (UniProt Q9BTW9)”, the pEC50 with adenosine triphosphate is 2.92; with guanosine triphosphate, 3.7.

In the case of “TBRG4 (effect direction: stabilized) (UniProt Q969Z0)”, the pEC50 was 3.26 with adenosine triphosphate and 3.48 with guanosine triphosphate.

Regarding “THUMPD1 (effect direction: stabilized) (UniProt Q9NXG2)”, the figures for the negative logarithm of the EC50 (pEC50) with adenosine triphosphate and with guanosine triphosphate were 3.08 and 3.86, respectively.

For the target “TNPO1 (effect direction: stabilized) (UniProt Q92973)”, the results for the pEC50 with adenosine triphosphate and in the assay with guanosine triphosphate were 2.89 and 3.68, respectively.

For the target “TNPO2 (effect direction: stabilized) (UniProt O14787)”, the pEC50 with adenosine triphosphate is less than 2.7; with guanosine triphosphate, less than 3.3.

For the target “TNPO3 (effect direction: stabilized) (UniProt Q9Y5L0)”, the negative-log EC50 (pEC50) was determined as 3.08 in the assay with adenosine triphosphate and 3.76 with guanosine triphosphate.

For “TP53RK (effect direction: stabilized) (UniProt Q96S44)”, the negative-log EC50 (pEC50) is 3.46 with adenosine triphosphate and 3.58 with guanosine triphosphate.

Regarding “TUBG1 (effect direction: stabilized) (UniProt P23258)”, the pEC50 was found to be 3.17 with adenosine triphosphate and 4.06 in the assay with guanosine triphosphate.

With “UAP1L1 (effect direction: stabilized) (UniProt Q3KQV9)”, the negative logarithm of the EC50 (pEC50) turned out to be 3.13 in the assay with adenosine triphosphate and 3.38 in the assay with guanosine triphosphate.

“UBA1 (effect direction: stabilized) (UniProt P22314)”: the figures for the pEC50 with adenosine triphosphate and with guanosine triphosphate were 4.18 and 3.79, respectively.

As for “UCK2 (effect direction: stabilized) (UniProt Q9BZX2)”, the negative-log EC50 (pEC50) in the assay with adenosine triphosphate was 3.28; in the assay with guanosine triphosphate, 3.9.

“UniProt O00442 (effect direction: stabilized)”: the pEC50 with adenosine triphosphate and in the assay with guanosine triphosphate was 4.08 each time.

Turning to “UniProt O43776 (effect direction: stabilized)”, the negative logarithm of the EC50 (pEC50) with adenosine triphosphate came to 4.13; with guanosine triphosphate, 4.05.

As to “UniProt O75323 (effect direction: stabilized)”, the negative logarithm of the EC50 (pEC50) came to 3.94 with adenosine triphosphate and 3.66 with guanosine triphosphate.

As to “UniProt P07437 (effect direction: stabilized)”, the negative logarithm of the EC50 (pEC50) with adenosine triphosphate was found to be 3.35; in the assay with guanosine triphosphate it was 4.05.

As to “UniProt P08240 (effect direction: stabilized)”, the negative-log EC50 (pEC50) with adenosine triphosphate is 4.01; with guanosine triphosphate, 3.81.

For “UniProt P17252 (effect direction: stabilized)”, the pEC50 in the assay with adenosine triphosphate came to 4.25; with guanosine triphosphate, 4.06.

Turning to “UniProt P17612 (effect direction: stabilized)”, the pEC50 in the assay with adenosine triphosphate stood at 3.82; with guanosine triphosphate, 3.72.

With “UniProt P19784 (effect direction: stabilized)”, the pEC50 with adenosine triphosphate is 4.12; with guanosine triphosphate, 3.92.

In the case of “UniProt P36542 (effect direction: stabilized)”, the negative-log EC50 (pEC50) in the assay with adenosine triphosphate came out at 4.25; with guanosine triphosphate, 4.12.

As to “UniProt P45985 (effect direction: stabilized)”, the results for the negative-log EC50 (pEC50) with adenosine triphosphate and in the assay with guanosine triphosphate were 3.79 and 3.78, respectively.

“UniProt P48047 (effect direction: stabilized)”: the pEC50 in the assay with adenosine triphosphate was found to be 3.53; with guanosine triphosphate it was 3.9.

With “UniProt P52564 (effect direction: stabilized)”, the figures for the negative-log EC50 (pEC50) with adenosine triphosphate and with guanosine triphosphate were 4 and 3.9, respectively.

Consider “UniProt P59998 (effect direction: stabilized)”, for which the values for the negative-log EC50 (pEC50) with adenosine triphosphate and with guanosine triphosphate were 3.9 and 4.03, respectively.

Regarding “UniProt P61026 (effect direction: stabilized)”, the values for the pEC50 with adenosine triphosphate and in the assay with guanosine triphosphate were 3.83 and 4.35, respectively.

The record behind these values is the supplement of paper PMC6411743.
